Measurements reported in patent US6784153B1, “Methods of homing molecules to lung using membrane dipeptidase” (The Burnham Institute, priority 1998, dated 2004).
Entries after “also recorded” stand apart in the source; their conditions may differ.

Key:
pancreas [1] = experiment: in vivo homing of phage displaying peptides to pancreas; parameters: species or system mice
Procedure: (§1) For lung and pancreas, a mixture of phage libraries containing 10^10 TU was diluted in 200 μl DMEM and injected into the tail vein of anesthetized BALB/c mice (2 month old; Harlan Sprague Dawley; San Diego Calif.); AVERTIN (0.017 ml/g) was used as anesthetic (Pasqualini and Ruoslahti, supra, 1996). After 1-4 minutes, mice were snap frozen in liquid nitrogen or, after about 5 minutes of phage circulation, the mice were perfused through the heart with 5-10 ml of DMEM (SIGMA; St. Louis Mo.). To recover the phage, the organs from the perfused mice or partially thawed organs from snap frozen mice were collected and weighed, then were homogenized in 1 ml DMEM-PI (DMEM containing protease inhibitors (PI); phenylmethyl sulfonyl fluoride (PMSF; 1 mM), aprotinin (20 μg/ml), leupeptin (1 μg/ml)).
(§2) Organ samples were washed 3 times with ice cold DMEM-PI containing 1% bovine serum albumin (BSA), then directly incubated with 1 ml K91-kan bacteria for 1 hr. Ten ml NZY medium containing 0.2 μg/ml tetracycline (NZY/tet) was added to the bacterial culture, the mixture was incubated in a 37° C. shaker for 1 hr, then 200 μl aliquots were plated in agar plates containing 40 μg/ml tetracycline (tet/agar).
(§3) Approximately 250 to 300 individual bacterial colonies containing phage recovered from the various organs or tissues were grown for 16 hr in 5 ml NZY/tet. In some experiments, approximately 1000 individual bacteria containing phage were picked and the phage were amplified in 2 ml of NZY/tet or the entire plate containing phage was scraped, pooled and grown in bulk and processed for injection. Where phage were cultured separately, the cultures were pooled and the phage were injected into mice or rats as described above for a second round of in vivo panning. In some experiments, a third or fourth round of panning was performed. Phage DNA was purified from individual bacterial colonies obtained and the DNA sequences encoding the peptides expressed by selected phage were determined (see Koivunen et al., supra, 1994b).
After two or three rounds of in vivo panning of mice injected with a cyclic CX7C (SEQ ID NO: 24) phage display library, various pancreas homing peptides were identified (Table 3). In particular, the peptide sequence SWCEPGWCR (SEQ ID NO: 4) appeared repeatedly in the pancreas. To determine the specificity of SWCEPGWCR (SEQ ID NO: 4), a phage displaying the sequence was amplified individually, diluted to the same input titer and administered to mice. Following administration, control brain organ was removed and the number of TU of phage in each pancreas and was determined.

pancreas [2] = experiment: immunohistologic analysis of pancreas homing phage; assay type: in vivo, mice
Procedure: Phage displaying homing peptides were detected in lung, pancreas and skin by immunostaining histologic sections obtained 5 min after administration of phage expressing a lung, pancreas or skin homing peptide (“peptide-phage”) to a mouse. Following administration of the peptide-phage, mice were handled as described above and various organs, including lung, pancreas and skin, were removed and fixed in Bouin's solution (SIGMA). Histologic sections were prepared and reacted with anti-M13 (phage) antibodies (Pharmacia Biotech; see U.S. Pat. No. 5,622,699, supra, 1997; Pasqualini and Ruoslahti, supra, 1996). Visualization of the bound anti-M13 antibody was performed using a second antibody conjugated to peroxidase (SIGMA) according to the manufacturer's instructions.
(§4) Similar experiments were performed in pancreas using phage displaying the pancreas homing peptide, SWCEPGWCR (SEQ ID NO: 4). In these experiments, histological samples of the pancreas as well as control organs and tissues including lung and skin were prepared and examined by immunostaining as described above. […] Moreover, after intravenous injection of phage displaying SWCEPGWCR (SEQ ID NO: 4), the phage was recovered from uterus at a 6× higher level in comparison to unselected phage. Thus, SWCEPGWCR (SEQ ID NO: 4) homes to both pancreas and uterus.

uterus = experiment: homing of pancreas homing phage to uterus; assay type: in vivo, mice
Procedure: as §4

adrenal gland = experiment: in vivo panning of X7 library, adrenal gland; parameters: species or system mice
Procedure: (§5) Following various in vivo panning screens, hundreds of thousands to millions of phage expressing homing peptides were recovered from the respective organ or tissue. Generally, the phage collected from a round of in vivo panning were plated on agar, about 250 to 300 clones were selected, grown in 5 ml cultures, then pooled and readministered for a subsequent round of in vivo panning (“regular method”). However, in some experiments, 1000 clones were selected, grown in 2 ml cultures, then pooled and administered for a subsequent round of screening; or the entire agar plate was scraped and all of the phage were cultured together and administered for a subsequent round of screening. The peptide inserts of various isolated phage were determined such that, of the millions of phage that homed, only a small number of sequences were identified.
The invention also provides adrenal gland homing peptides such as LMLPRAD (SEQ ID NO: 27) and LPRYLLS (SEQ ID NO: 28), which share a LPR motif (see Table 11), or the peptides R(Y/F)LLAGG (SEQ ID NO: 404) and RYPLAGG (SEQ ID NO: 389), which share the motif LAGG (SEQ ID NO: 430; see Table 10). The exemplified adrenal gland homing peptides were identified by injection of an X7 (SEQ ID NO: 29) library into mice. The peptides were isolated by the regular method.
as §2
Approximately 250 to 300 individual bacterial colonies containing phage recovered from the various organs or tissues were grown for 16 hr in 5 ml NZY/tet. […] Phage DNA was purified from individual bacterial colonies obtained and the DNA sequences encoding the peptides expressed by selected phage were determined (see Koivunen et al., supra, 1994b).

liver = experiment: in vivo panning of X7 library, liver; parameters: species or system mice
Procedure: as §5
Also provided are liver homing peptides. Such peptides were identified by injection of an X7 (SEQ ID NO: 29) library into mice. The peptides were isolated by the regular method (see Example II, Table 1, and Table 11, below).
as §2
as §3, with “Where phage were cultured separately, the cultures were pooled and the phage were injected into mice or rats as described above for a second round of in vivo panning. In some experiments, a third or fourth round of panning was performed.” left out

lung = experiment: in vivo homing of phage displaying peptides to lung; parameters: species or system mice
Procedure: as §1, §2, §3
After two or three rounds of in vivo panning of mice injected with a cyclic CX3CX3CX3C (SEQ ID NO: 25) or a cyclic CX6C (SEQ ID NO: 26) phage display library, four peptides that homed to lung were identified.
To determine the specificity of lung homing of the individual peptides identified, phage displaying the peptides were amplified individually, diluted to the same input titer and administered to mice. Following administration, control kidney and brain organ was removed and the number of TU of phage in lung, kidney and brain was determined. The results shown in FIG. 2 reveal that 10× and 35× more phage having the peptide sequence CGFECVRQCPERC (SEQ ID NO: 1; GFE-1) bound to lung than to kidney and brain, respectively. […] The lung homing peptides CGFECVRQCPERC (SEQ ID NO: 1; GFE-1), CGFELETC (SEQ ID NO: 2; GFE-2), CTLRDRNC (SEQ ID NO: 15) and CIGEVEVC (SEQ ID NO: 16) are enriched in lung at 35×, 9×, 6× and 5×, respectively, over unselected phage (see FIG. 2).

murine MDP = molecular target: T1, murine MDP (Mus musculus, UniProt P31428); experiment: phage binding to COS-1 cells transfected with MDP; settings: 5×10^6 COS-1 cells, 10^10 TU phage
T1 construct: The amplified 1.3 kb murine MDP cDNA was digested with KpnI and XbaI, and inserted into the same sites of the pcDNA3 expression vector; expressed in transfected cells; host or cells: COS-1 cells, pcDNA3 expression vector
T1 sequence (P31428 17-384): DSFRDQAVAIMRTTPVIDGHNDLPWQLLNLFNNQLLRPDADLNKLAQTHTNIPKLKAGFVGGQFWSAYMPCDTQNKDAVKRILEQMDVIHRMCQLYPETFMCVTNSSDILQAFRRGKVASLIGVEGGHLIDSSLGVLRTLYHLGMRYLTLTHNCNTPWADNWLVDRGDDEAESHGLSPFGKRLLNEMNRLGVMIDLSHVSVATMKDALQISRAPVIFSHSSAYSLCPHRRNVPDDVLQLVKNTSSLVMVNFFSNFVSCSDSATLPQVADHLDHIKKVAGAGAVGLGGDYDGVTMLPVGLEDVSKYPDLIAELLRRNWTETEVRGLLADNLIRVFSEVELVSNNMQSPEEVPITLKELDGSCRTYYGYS
Procedure: The COS-1 cell line, which is known to have low or no detectable level of MDP activity, has been used extensively to study MDP structure and function (Keynan et al., supra, 1996; Keynan et al., Biochem, J. 326:47-51 (1997)). COS-1 cells were trasfected with murine MDP and used to assay binding to SEQ ID NOS: 1 and 2 as described below.
For transfection into COS-1 cells, a murine MDP expression vector was prepared as follows. Total mouse lung RNA was isolated using Qiagen RNA purification columns (Qiagen; Santa Clarita, Calif.) and used as a template for first strand cDNA synthesis with reverse transcriptase and a mixture of random hexamers and poly-dT oligonucleotides (GIBCO/BRL; Grand Island, N.Y.). Mouse MDP cDNA (Pasqualini et al., J. Cell Biol. 130:1189-1196 (1995)) was amplified from the cDNA pool by PCR using the oligonucleotide pair: […] (SEQ ID NO: 446), which contains a KpnI adaptor, and […] (SEQ ID NO: 447), which contains an XbaI adaptor, using Taq polymerase from GIBCO/BRL. The amplified 1.3 kb murine MDP cDNA was digested with KpnI and XbaI, and inserted into the same sites of the pcDNA3 expression vector (Invitrogen; Carlsbad, Calif.) using DNA restriction enzymes and T4 DNA ligase from New England Biolabs (Beverly, Mass.). Successful cloning of the murine MDP cDNA was confirmed by DNA sequencing. Transfection of the COS-1 cells was performed with the Superfect Reagent from Qiagen as recommended by the manufacturer.
Phage binding to COS-1 cells transfected with MDP was determined as follows. Briefly, 10^7 COS-1 cells were transfected with 10 μg of either the MDP expression vector or the vector alone. After 48 hours, cells were scraped gently from the dish, washed once, and subjected to the phage binding assay or membrane dipeptidase activity assay described above. For the phage binding assay, 5×10^6 cells and 10^10 transducing units (TU) of phage input were used. For measurement of membrane dipeptidase activity, 10^6 cells were lysed in 100 μl of PBS/octylglycoside without protease inhibitors. A 10 μl aliquot of the extract was used to measure MDP activity.

[3] = individually amplified phage, FIG. 2

SWCEPGWCR [pancreas homing peptide] was tested. Which “% OF MOTIF AMONG ALL CLONES” value (pancreas [1]; PANCREAS (value printed on the SKIN heading line)) did it give?
The value was 9%.

And the pancreas/brain phage ratio (pancreas [1]; PANCREAS section, pancreas as compared to brain)?
Its pancreas/brain phage ratio is 20.

And the “phage bound to pancreas than to brain” value (pancreas [1]; individually amplified phage)?
The value was 10 × and up to 20 ×.

What about the “enrichment of phage to the pancreas as compared to unselected phage” value (pancreas [1]; mouse, in vivo) of the same substance?
The value was 22 ×.

What about the “selectivity for pancreas over unselected phage and over brain” value (pancreas [1]; mouse, in vivo) of the same substance?
The value was 20 fold.

What about the immunostaining of pancreas (pancreas [2]; 5 min after phage) of the same substance?
The immunostaining of pancreas was “staining in the capillaries and larger blood vessels of the exocrine pancreas”.

What about the “staining of lung and skin after pancreas homing phage” value (pancreas [2]; control tissues) of the same substance?
The value was “nor was any staining observed in lung and skin”.

And the “phage recovered from uterus in comparison to unselected phage” value (uterus; after intravenous injection)?
Its value is 6 ×.

And the staining of uterus (uterus; immunostaining)?
Its staining of uterus is “some staining of blood vessels within the uterus”.

With “LMLPRAD [peptide from phage recovered from adrenal gland]” as the substance, how does the “% OF MOTIF AMONG ALL CLONES” value (adrenal gland; ADRENAL GLAND) read?
The value was 11%.

And the “adrenal gland/brain homing ratio” value (adrenal gland; ADRENAL GLAND section, adrenal gland as compared to brain)?
The value was 50.

And the “enrichment in adrenal gland as compared to brain” value (adrenal gland; mouse, in vivo)?
The value was 50 fold.

Which “% OF MOTIF AMONG ALL CLONES” value (liver) does the source give for “SRRFVGG [peptide from phage recovered from liver]” here?
The value was 6%.

Which “% OF MOTIF AMONG ALL CLONES” value (liver) does the source give for “WRQNMPL [peptide from phage recovered from liver]” here?
The value was 6%.

For CGFELETC [lung homing peptide], which “% OF MOTIF AMONG ALL CLONES” value (lung; LUNG) is on record?
The value was 5%.

And the “LUNG/BRAIN RATIO” value (lung; LUNG section)?
Its value is 9.

What about the “homing of lung homing phage to control kidney or brain” value (lung; control organs) of the same substance?
Its value is “few phage detected in kidney or brain; also recorded: no selective homing to kidney or brain was detected”.

What about the “enriched in lung over unselected phage” value (lung; [3]) of the same substance?
The value was 9 ×.

And the “phage bound to lung than to brain” value (lung; [3])?
The value was 20 ×.

What about the “phage bound to lung than to kidney” value (lung; [3]) of the same substance?
The value was 12 ×.

What about the “enrichment in lung as compared to unselected phage” value (lung; mouse, in vivo) of the same substance?
The value was 9 fold.

And the “phage bound to MDP transfected cells than to mock transfected cells” value (murine MDP)?
Its value is “also bound MDP transfected cells”.

“VKSVCRT [peptide from phage recovered from liver]” was tested. Which “% OF MOTIF AMONG ALL CLONES” value (liver) did it give?
Its value is 11%.
